According to patent publication US20130089591A1, “Compositions” (Givaudan SA, priority 2010, published 2013):

Key:
[1] = Aggregation of polyurea capsules, Method 5.5; type: physicochemical; design: key: ∘: no aggregation of the capsules; +: aggregation of few capsules together only visible under microscopy; ++: aggregates of mm size; +++: important aggregation; ++++: aggregation is such that a cake is obtained; conditions: polyurea Method 5.5, phase A of Table 1; for Encapsulation, No precursor (scale of aggregation): free aldehyde as phase B; for Encapsulation, With precursor (scale of aggregation): precursor (Method 1.1) as phase B
Method: An oil phase was prepared when Desmodur W and Desmodur N3300 (Bayer) were added in perfume oil at a level of 2.2% and 13% respectively.
An aqueous phase (Solution S1) was prepared when Gantrez AN119 (ISP) was added to water, at a level of 1.6%. The solution was heated at 70° C. for 10 min to disperse the polymer.
An aqueous phase (Solution S2) was prepared when Ethylene diamine (Merck) was added to water, at a level of 7.5%.
30 g of the oil phase was mixed with 80 g of solution S1, to form an oil-in-water emulsion, in a 250 mL vessel equipped with a propeller operating at 1000 rpm.
After 10 min of stirring, 20 g of solution S2 was added.
The slurry was stirred for 30 min at room temperature, then heated to 60° C. and stirred for 3 H at 60° C. before cooling.
The Method 5.5 of Example 5 was applied to encapsulate different perfume oils described as phase A (non aldehyde raw materials) and phase B (aldehyde raw materials).
The composition of Phase A was described in Table 1 above. Phase B is an aldehyde perfume molecule used as such or as its precursor form prepared according to Method 1.1.
According to the aspect of the slurry a scale of aggregation was defined as follow: […]
(§1) ∘ no aggregation of the capsules + aggregation of few capsules together only visible under microscopy ++ aggregates of mm size +++ important aggregation ++++ aggregation is such that a cake is obtained
Phase B was added at a level of 20% of aldehyde in phase A.

[2] = Aggregation of polyurea capsules, Method 5.6; type: physicochemical; design: key: ∘: no aggregation of the capsules; +: aggregation of few capsules together only visible under microscopy; ++: aggregates of mm size; +++: important aggregation; ++++: aggregation is such that a cake is obtained; conditions: polyurea Method 5.6, phase A of Table 1; for Encapsulation, No precursor (scale of aggregation): free aldehyde as phase B; for Encapsulation, With precursor (scale of aggregation): precursor (Method 1.1) as phase B
Method: An oil phase was prepared when Desmodur VL R20 (Bayer) was added in perfume oil at a level of 2.5%.
An aqueous phase (Solution S1) was prepared when Mowiol 4-88 (Kururay) was added in water, at a level of 0.1%.
An aqueous phase (Solution S2) was prepared when diethylentriamine (Merck) was added in water, at a level of 2%.
100 g of oil phase was mixed with 250 g of solution S1, to form an oil-in-water emulsion, in a 500 mL vessel equipped with a propeller operating at 1000 rpm.
After 10 min of stirring, 50 g of solution S2 was added.
The slurry was stirred for 4 h at room temperature.
The Method 5.6 of Example 5 was applied to encapsulate different perfume oils described as phase A (non aldehyde raw materials) and phase B (aldehyde raw materials).
The composition of Phase A is described in Table 1. Phase B is an aldehyde perfume molecule used as such or as its precursor form prepared according to Method 1.1.
According to the aspect of the slurry a scale of aggregation has been defined as follow: […]
as §1

[3] = Aggregation of polyurea capsules, Method 5.7; type: physicochemical; conditions: polyurea Method 5.7; phase B at 5% in phase A of Table 1
Method: An oil phase was prepared when Desmodur N3300 (Bayer) was added in perfume oil at a level of 6.7%.
An aqueous phase (Solution S1) was prepared when_Mowiol 4-88 (Kururay) was added in water, at a level of 1.1%.
An aqueous phase (Solution S2) was prepared when Hydrosil 1151 (Evonik) was added in water, at a level of 75%.
134 g of oil phase was mixed with 440 g of solution 51, to form an oil-in-water emulsion, in a 1 L vessel equipped with a propeller operating at 1000 rpm.
After 10 min of stirring, 45 g of solution S2 was added.
[…] the slurry was kept at 40° C. for 2 h more before cooling.
The Method 5.7 of Example 5 was applied to encapsulate different perfume oils described as phase A (non aldehyde raw materials) and phase B (aldehyde raw materials).
The composition of Phase A is described in Table 1. Phase B is an aldehyde perfume molecule used as such or as its precursor form added at a level of 5% in Phase A.

[4] = Aggregation of polyamide capsules (Example 2 method); type: physicochemical; design: key to Encapsulation, No precursor (scale of aggregation) / Encapsulation, With precursor (scale of aggregation): ∘: no aggregation of the capsules; +: aggregation of few capsules together only visible under microscopy; ++: aggregates of mm size; +++: important aggregation; ++++: aggregation is such that a cake is obtained; conditions: for Encapsulation, No precursor (scale of aggregation): free aldehyde as phase B at 5% in phase A of Table 1; for Encapsulation, With precursor (scale of aggregation): precursor of the aldehyde (Method 1.1) as phase B at 5% in phase A of Table 1
Method: An oil phase was prepared by dissolving isophtahaloyl dichloride (Fluka) in oil (oil composition specified in the examples below) at a level of 10%
An aqueous solution (Solution S1) was prepared by dissolving a polyvinyl alcohol Mowiol 4-88 (Kuru ray) in water at a level of 1%.
An aqueous solution (Solution S2) was prepared when triethylentetraamine (Hunstman) was diluted in water at a level of 3%.
100 g of the oil phase was mixed with 450 g of solution S1 to form an oil-in-water emulsion in a 1 L reactor equipped with a MIG stirrer operating at 1000 rpm. After 5 minutes of mixing, 450 g of solution S2 was slowly added. The resultant slurry of polyamide capsules was kept under stirring for 2 H.
Two capsule populations were formed. A first encapsulating IPM (isopropyl myristate) and a second containing IPM+5% of ethyl vaniline. The capsules were made according to the method of Example 2.
The methodology of Example 2 was applied to encapsulate different perfume oils described as phase A (non aldehyde raw materials) and phase B (aldehyde raw materials).
The phase B was added at 5% to the phase A prior to encapsulation. Different compositions of phase B have been used corresponding each time to a single aldehyde perfume molecule or to its precursor formed according to the methodology of Method 1.1, above.
According to the condition of the slurry a scale of aggregation has been defined as follows: […]
as §1

[5] = Water solubility of the aldehyde
[6] = Aggregation of polyurea capsules, Method 5.1; type: physicochemical
Method: An oil phase was prepared by adding Desmodur W (Isocyanate from Bayer) to a perfume oil at a level of 16.6%.
An aqueous phase (solution S1) was prepared by adding Luviskol k90 (BASF) to water, at a level of 4.5%. The pH of the solution was adjusted to 11.5 by addition of NaOH at 10%.
An aqueous phase (Solution S2) was prepared when Lupasol PR8515 (BASF) was added to water, at a level of 10%.
300 g of the oil phase was mixed with 500 g of solution S1, to form an oil-in-water emulsion, in a 1 L reactor equipped with a MIG stirrer operating at 1000 rpm.
After 30 minutes of mixing, 200 g of solution S2 was added over a period of 1 minute.
After 30 minutes, the slurry was heated up to 70° C. (1 H), then kept for 2 H at 70° C., then heated to 80° C. and kept for 1 H at 80° C., then heated to 85° C. and kept for 1 H at 85° C., then cooled to 70° C. and kept for 1 H at 70° C. before final cooling at 25° C.
The Method 5.1 of Example 5 was applied to encapsulate different perfume oils described as phase A (non aldehyde raw materials) and phase B (aldehyde raw materials).
In the following trials, phase A was IPM and phase B was aldehyde perfume molecules. Phase B was added at a level of 5% in phase A.
Phase B contains aldehyde C11 iso or the corresponding precursor prepared according to Method 1.1.
Phase B was added at a level of 5% in phase A.

[7] = Aggregation of polyurea capsules, Method 5.4; type: physicochemical; conditions: polyurea Method 5.4; phase B at 4% of aldehyde in phase A
Method: An oil phase was prepared when Desmodur W (Bayer) was added in perfume oil at a level of 16.6%.
An aqueous phase (Solution S1) was prepared when Mowiol 40-88 (Kururay) was added in water, at a level of 4.5%.
An aqueous phase (Solution S2) was prepared when Lupasol PR8515 (BASF) was added in water, at a level of 10%.
240 g of oil phase was mixed with 640 g of solution S1, to form an oil-in-water emulsion, in a 1 L reactor equipped with a mig operating at 1000 rpm.
After 30 min, the slurry is heated up to 50° C. and the solution S2 is slowly added (1 H).
The slurry is then heated up to 70° C. and kept for 2 H at 70° C., then heated to 80° C. and kept for 1 H at 80° C., then heated to 85° C. and kept for 1 H at 85° C., then cooled to 70° C. and kept for 1 H at 70° C. before final cooling at 25° C.
The Method 5.4 of Example 5 was applied to encapsulate different perfume oils described as phase A (non aldehyde raw materials) and phase B (aldehyde raw materials).
Phase B is tricyclal or the precursor of tricyclal obtained according to Method 1.1.
Phase B was added at a level of 4% of aldehyde in phase A.

Encapsulation, No precursor (scale of aggregation) [1] | Encapsulation, With precursor (scale of aggregation) [1] | Encapsulation, No precursor (scale of aggregation) [2] | Encapsulation, With precursor (scale of aggregation) [2] | Slurry aspect [3] | Encapsulation, No precursor (scale of aggregation) [4] | Encapsulation, With precursor (scale of aggregation) [4] | Water solubility ([5]; Table 2) [ppm] | Water solubility ([5]; Table 3) [ppm] | Water solubility ([5]; Table of Example 11) [ppm] | Water solubility ([5]; Table of Example 13) [ppm] | Quality of the capsules examined microscopically ([6]; IPM + aldehyde) | Encapsulation (aggregation) ([6]; free aldehyde at 5% in IPM) | Aggregation of the capsules obtained [7] | SMILES
∘ | ∘ | ∘ | ∘ | cake | ++ | ∘ |  |  |  |  |  |  |  | CC(C=O)Cc1ccc(C(C)(C)C)cc1 (centres unmarked) [Lilial]
++++ | ∘ | +++ | ∘ |  | ++++ | ∘ | 700 | 700 | 700 | 700 | aggregated | Aggregation | slightly aggregated | CC1=CC(C)C(C=O)CC1 (centres unmarked) [Tricyclal]
